Test results published in patent US10131675B2 (Genentech, Inc., priority 2015, dated 2018).

target: DLK (Homo sapiens (Human), UniProt Q12852); assay: DLK TR-FRET Inhibition Assay; type: biochemical; conditions: N-terminally GST-tagged DLK (catalytic domain amino acid 1-520), MKK4 K131M substrate, 30 μM ATP; read-out: DLK HTRF Ki
Experimental: DLK kinase reactions (20 μL) containing 5 nM N-terminally GST-tagged DLK (catalytic domain amino acid 1-520) (Carna Bioscience), 40 nM N-terminally HIS tagged MKK4 K131M substrate, and 30 μM ATP in kinase reaction buffer (50 mM HEPES, pH 7.5, 0.01% Triton X-100, 0.01% Bovine γ-Globulins, 2 mM DTT, 10 mM MgCl2 and 1 mM EGTA), and testing compound 1:3 serial diluted starting at 20 uM were incubated at ambient temperature for 60 minutes in 384 well OptiPlate (Perkin Elmer). To quench kinase reactions and detect phosphorylated MKK4, 15 μL of TR-FRET antibody mixture containing 2 nM anti-phosphorylated MKK4 labeled with Europium cryptate (Cisbio) and 23 nM anti-HIS labeled with D2 (Cisbio) in detection buffer (25 mM Tris pH 7.5, 100 mM NaCl, 100 mM EDTA, 0.01% Tween-20, and 200 mM KF) was added to the reaction mixture. The detection mixture was incubated for 3 hours at ambient temperature and the TR-FRET was detected with an EnVision multilabel plate reader (Perkin-Elmer) using the LANCE/DELFIA Dual Enh label from Perkin-Elmer (excitation filter: UV2 (TRF) 320 and emission filters: APC 665 and Europium 615).

Sequence of DLK (Q12852 1-520): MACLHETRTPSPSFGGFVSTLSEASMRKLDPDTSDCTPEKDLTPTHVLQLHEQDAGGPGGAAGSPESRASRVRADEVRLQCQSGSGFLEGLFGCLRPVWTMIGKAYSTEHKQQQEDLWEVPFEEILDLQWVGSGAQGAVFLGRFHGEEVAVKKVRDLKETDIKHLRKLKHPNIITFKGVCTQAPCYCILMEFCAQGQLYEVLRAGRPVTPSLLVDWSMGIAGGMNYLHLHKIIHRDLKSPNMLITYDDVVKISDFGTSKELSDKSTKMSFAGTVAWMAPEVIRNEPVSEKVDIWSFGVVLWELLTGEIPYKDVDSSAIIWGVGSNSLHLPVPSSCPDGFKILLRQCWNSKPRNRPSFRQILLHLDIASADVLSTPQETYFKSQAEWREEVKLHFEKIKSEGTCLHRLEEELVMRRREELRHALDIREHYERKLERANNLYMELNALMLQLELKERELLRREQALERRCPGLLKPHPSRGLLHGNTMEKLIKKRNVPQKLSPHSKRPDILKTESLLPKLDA

Question: Which Ki does the source give for `CC1(C)OCCn2c1nc1c(N3CC4(COC4)C3)nc(-c3cnc(N)nc3)nc12` [Example 50, 5-[8,8-Dimethyl-1-(2-oxa-6-aza-spiro[3.3]hept-6-yl)-5,6-dihydro-8H-7-oxa-2,4,4b,9-tetraaza-fluoren-3-yl]-pyrimidin-2-ylamine] here?
Answer: 490 nM

Question: How did the Ki turn out when `CC1(C)OCCn2c1nc1c(N3CC4(CCCO4)C3)nc(-c3cnc(N)nc3)nc12` [Example 51, 5-[8,8-Dimethyl-1-(5-oxa-2-aza-spiro[3.4]oct-2-yl)-5,6-dihydro-8H-7-oxa-2,4,4b,9-tetraaza-fluoren-3-yl]-pyrimidin-2-ylamine] was run?
Answer: 907 nM

Question: How did the Ki turn out when `CC1(C)OCCn2c1nc1c(N3CC4(CCC4)C3)nc(-c3cnc(N)nc3)nc12` [Example 52, 5-[1-(2-Aza-spiro[3.3]hept-2-yl)-8,8-dimethyl-5,6-dihydro-8H-7-oxa-2,4,4b,9-tetraaza-fluoren-3-yl]-pyrimidin-2-ylamine] was run?
Answer: 515 nM

Question: `C[C@H]1CCCN1c1nc(-c2cnc(N)nc2)nc2c1nc1n2CCOC1(C)C` [Example 53, 5-[8,8-Dimethyl-1-((S)-2-methyl-pyrrolidin-1-yl)-5,6-dihydro-8H-7-oxa-2,4,4b,9-tetraaza-fluoren-3-yl]-pyrimidin-2-ylamine] was tested. Which Ki did it give?
Answer: 479 nM

Question: How did the Ki turn out when `CC1CCC(C)N1c1nc(-c2cnc(N)nc2)nc2c1nc1n2CCOC1(C)C` (centres unmarked) [Example 54, 5-[1-(2,5-Dimethyl-pyrrolidin-1-yl)-8,8-dimethyl-5,6-dihydro-8H-7-oxa-2,4,4b,9-tetraaza-fluoren-3-yl]-pyrimidin-2-ylamine] was run?
Answer: 284 nM

Question: Which Ki does the source give for `C[C@@H]1CC[C@H](C)N1c1nc(-c2cnc(N)nc2)nc2c1nc1n2CCOC1(C)C` [Example 55, 5-(4-((2R,5S)-2,5-dimethylpyrrolidin-1-yl)-6,6-dimethyl-8,9-dihydro-6H-[1,4]oxazino[4,3-e]purin-2-yl)pyrimidin-2-amine] here?
Answer: 371 nM

Question: `CC1(C)OCCn2c1nc1c(N3C4CCC3CC4)nc(-c3cnc(N)nc3)nc12` [Example 56, 5-(4-(7-azabicyclo[2.2.1]heptan-7-yl)-6,6-dimethyl-8,9-dihydro-6H-[1,4]oxazino[4,3-e]purin-2-yl)pyrimidin-2-amine] was tested. Which Ki did it give?
Answer: 339 nM

Question: With `COc1cc(-c2nc(N3CC4CC3C4)c3nc4n(c3n2)CCOC4(C)C)cnc1N` [Example 57] as the molecule, how does the Ki read?
Answer: 200 nM

Question: How did the Ki turn out when `CN(c1nc(-c2cnc(N)nc2)nc2c1nc1n2CCOC1(C)C)C1CCC1` [Example 58, 2-(2-aminopyrimidin-5-yl)-N-cyclobutyl-N,6,6-trimethyl-8,9-dihydro-6H-[1,4]oxazino[4,3-e]purin-4-amine] was run?
Answer: 87.7 nM

Question: `CC1(C)OCCn2c1nc1c(NC3CC3)nc(-c3cnc(N)nc3)nc12` [Example 59, 2-(2-aminopyrimidin-5-yl)-N-cyclopropyl-6,6-dimethyl-8,9-dihydro-6H-[1,4]oxazino[4,3-e]purin-4-amine] was tested. Which Ki did it give?
Answer: 192 nM

Question: For `CN(c1nc(-c2cnc(N)nc2)nc2c1nc1n2CCOC1(C)C)C1CC1` [Example 60, 2-(2-aminopyrimidin-5-yl)-N-cyclopropyl-N,6,6-trimethyl-8,9-dihydro-6H-[1,4]oxazino[4,3-e]purin-4-amine], which Ki is on record?
Answer: 207 nM

Question: `CCN(c1nc(-c2cnc(N)nc2)nc2c1nc1n2CCOC1(C)C)C1CC1` [Example 61, 2-(2-aminopyrimidin-5-yl)-N-cyclopropyl-N-ethyl-6,6-dimethyl-8,9-dihydro-6H-[1,4]oxazino[4,3-e]purin-4-amine] was tested. Which Ki did it give?
Answer: 250 nM

Question: For `CCN(c1nc(-c2cnc(N)nc2)nc2c1nc1n2CCOC1(C)C)C1CCC1` [Example 62, 2-(2-aminopyrimidin-5-yl)-N-cyclobutyl-N-ethyl-6,6-dimethyl-8,9-dihydro-6H-[1,4]oxazino[4,3-e]purin-4-amine], which Ki is on record?
Answer: 86.7 nM

Question: How did the Ki turn out when `CC(C)N(c1nc(-c2cnc(N)nc2)nc2c1nc1n2CCOC1(C)C)C1CC1` [Example 63, 2-(2-aminopyrimidin-5-yl)-N-cyclopropyl-N-isopropyl-6,6-dimethyl-8,9-dihydro-6H-[1,4]oxazino[4,3-e]purin-4-amine] was run?
Answer: 558 nM

Question: How did the Ki turn out when `CC(C)N(c1nc(-c2cnc(N)nc2)nc2c1nc1n2CCOC1(C)C)C1CCC1` [Example 64, 2-(2-aminopyrimidin-5-yl)-N-cyclobutyl-N-isopropyl-6,6-dimethyl-8,9-dihydro-6H-[1,4]oxazino[4,3-e]purin-4-amine] was run?
Answer: 267 nM

Question: For `COc1cc(-c2nc(N3CC(F)(F)C3)c3nc4n(c3n2)CCOC4(C)C)cnc1N` [Example 65, 5-(4-(3,3-difluoroazetidin-1-yl)-6,6-dimethyl-8,9-dihydro-6H-[1,4]oxazino[4,3-e]purin-2-yl)-3-methoxypyridin-2-amine], which Ki is on record?
Answer: 860 nM

Question: `Cc1c[nH]c2ncc(-c3nc(N4CC(F)(F)C4)c4nc5n(c4n3)CCOC5(C)C)cc12` [Example 66] was tested. Which Ki did it give?
Answer: 11.9 nM

Question: For `CC(C)c1c[nH]c2ncc(-c3nc(N4CC(F)(F)C4)c4nc5n(c4n3)CCOC5(C)C)cc12` [Example 67], which Ki is on record?
Answer: 32.7 nM

Question: Which Ki does the source give for `CC1(C)OCCn2c1nc1c(N3CC(F)(F)C3)nc(-c3cnc(N)nc3)nc12` [Example 68] here?
Answer: 480 nM

Question: With `CCOc1cc(-c2nc(N3CC(F)(F)C3)c3nc4n(c3n2)CCOC4(C)C)cnc1N` [Example 69] as the molecule, how does the Ki read?
Answer: 289 nM

Question: With `CC1(C)OCCn2c1nc1c(N3CC(F)(F)C3)nc(-c3cnc(N)c(OCC4CC4)c3)nc12` [Example 70] as the molecule, how does the Ki read?
Answer: 417 nM

Question: `CC(C)Oc1cc(-c2nc(N3CC(F)(F)C3)c3nc4n(c3n2)CCOC4(C)C)cnc1N` [Example 71] was tested. Which Ki did it give?
Answer: 104 nM

Question: Which Ki does the source give for `CCC(C)Oc1cc(-c2nc(N3CC(F)(F)C3)c3nc4n(c3n2)CCOC4(C)C)cnc1N` (centres unmarked) [Example 72] here?
Answer: 230 nM

Question: `COc1cc(-c2nc(N3CCC(F)(F)C3)c3nc4n(c3n2)CCOC4(C)C)cnc1N` [Example 73, 5-(4-(3,3-difluoropyrrolidin-1-yl)-6,6-dimethyl-8,9-dihydro-6H-[1,4]oxazino[4,3-e]purin-2-yl)-3-methoxypyridin-2-amine] was tested. Which Ki did it give?
Answer: 297 nM

Question: With `Cc1c[nH]c2ncc(-c3nc(N4CCC(F)(F)C4)c4nc5n(c4n3)CCOC5(C)C)cc12` [Example 74] as the molecule, how does the Ki read?
Answer: 25.9 nM

Question: For `CC(C)c1c[nH]c2ncc(-c3nc(N4CCC(F)(F)C4)c4nc5n(c4n3)CCOC5(C)C)cc12` [Example 75], which Ki is on record?
Answer: 112 nM

Question: For `CC1(C)OCCn2c1nc1c(N3CCC(F)(F)C3)nc(-c3cnc(N)nc3)nc12` [Example 76], which Ki is on record?
Answer: 97.6 nM

Question: For `CC1(C)OCCn2c1nc1c(N3CCC(F)(F)C3)nc(-c3cnc(N)c(OCC4CC4)c3)nc12` [Example 77], which Ki is on record?
Answer: 588 nM

Question: With `CCOc1cc(-c2nc(N3CCC(F)(F)C3)c3nc4n(c3n2)CCOC4(C)C)cnc1N` [Example 78] as the molecule, how does the Ki read?
Answer: 558 nM

Question: `CC(C)Oc1cc(-c2nc(N3CCC(F)(F)C3)c3nc4n(c3n2)CCOC4(C)C)cnc1N` [Example 79] was tested. Which Ki did it give?
Answer: 269 nM

Question: Which Ki does the source give for `CCC(C)Oc1cc(-c2nc(N3CCC(F)(F)C3)c3nc4n(c3n2)CCOC4(C)C)cnc1N` (centres unmarked) [Example 80] here?
Answer: 443 nM

Question: With `CC1(C)OCCn2c1nc1c(N3CCC(F)(F)C3)nc(-c3cnc(N)c(Cl)c3)nc12` [Example 81] as the molecule, how does the Ki read?
Answer: 272 nM

Question: `CC1(C)OCCn2c1nc1c(N3CCC(F)(F)C3)nc(-c3cnc(N)c(F)c3)nc12` [Example 82] was tested. Which Ki did it give?
Answer: 280 nM

Question: With `CC1(C)OCCn2c1nc1c(N3CCC(F)(F)C3)nc(-c3cnc4ccnn4c3)nc12` [Example 83] as the molecule, how does the Ki read?
Answer: 497 nM

Question: With `CC1(C)OCCn2c1nc1c(OC3CCCC3)nc(-c3cnc(N)nc3)nc12` [Example 84, 5-(4-(cyclopentyloxy)-6,6-dimethyl-8,9-dihydro-6H-[1,4]oxazino[4,3-e]purin-2-yl)pyrimidin-2-amine] as the molecule, how does the Ki read?
Answer: 357 nM

Question: Which Ki does the source give for `CC(C)Oc1nc(-c2cnc(N)nc2)nc2c1nc1n2CCOC1(C)C` [Example 85] here?
Answer: 571 nM

Question: Which Ki does the source give for `CC1(C)OCCn2c1nc1c(OCC3CC3)nc(-c3cnc(N)nc3)nc12` [Example 86] here?
Answer: 634 nM

Question: Which Ki does the source give for `COc1nc(-c2cnc3[nH]cc(C(F)(F)F)c3c2)nc2c1nc1n2CCOC1(C)C` [Example 87] here?
Answer: 14 nM

Question: With `CC1(C)OCCn2c1nc1c(OC3CCC3)nc(-c3cnc(N)nc3)nc12` [Example 88] as the molecule, how does the Ki read?
Answer: 330 nM

Question: For `CC1(C)OCCn2c1nc1c(OC3CC4CC4C3)nc(-c3cnc(N)nc3)nc12` (centres unmarked) [Example 89], which Ki is on record?
Answer: 551 nM

Question: Which Ki does the source give for `CC1(C)OCCn2c1nc1c(N3CC4CC3C4)nc(-c3cnc(N)c(C(F)(F)F)c3)nc12` [Example 90, 5-(4-(2-azabicyclo[2.1.1]hexan-2-yl)-6,6-dimethyl-8,9-dihydro-6H-[1,4]oxazino[4,3-e]purin-2-yl)-3-(trifluoromethyl)pyridin-2-amine] here?
Answer: 5.98 nM

Question: How did the Ki turn out when `CC1(C)OCCn2c1nc1c(N3CC4CC3C4)nc(-c3cncc(C(F)(F)F)c3)nc12` [Example 92, 4-(2-azabicyclo[2.1.1]hexan-2-yl)-6,6-dimethyl-2-(5-(trifluoromethyl)pyridin-3-yl)-8,9-dihydro-6H-[1,4]oxazino[4,3-e]purine] was run?
Answer: 478 nM

Question: For `CC1(c2nc(-c3cnc(N)nc3)nc3c2nc2n3CCOC2(C)C)CC1` [Example 95, 5-(6,6-dimethyl-4-(1-methylcyclopropyl)-8,9-dihydro-6H-[1,4]oxazino[4,3-e]purin-2-yl)pyrimidin-2-amine], which Ki is on record?
Answer: 476 nM

Question: How did the Ki turn out when `CC1(C(F)(F)F)OCCn2c1nc1c(N3CC4CC3C4)nc(-c3cnc(N)nc3)nc12` (centres unmarked) [Example 100, 5-(4-(2-azabicyclo[2.1.1]hexan-2-yl)-6-methyl-6-(trifluoromethyl)-8,9-dihydro-6H-[1,4]oxazino[4,3-e]purin-2-yl)pyrimidin-2-amine] was run?
Answer: 225 nM
